Reference: US11633373B2, “Method for reduction of behavioral disorders in pigs” (Alzchem Trostberg GmbH, priority 2020, dated 2023)
“Also recorded” adds a separate entry of the source.

System: pigs (fattening animals of the Piétrain×Danbred breed)
Assay: Tail biting (caudophagia) injury scoring in fattening pigs fed guanidinoacetic acid in the feed
Type: in vivo, pig (Sus scrofa domesticus)
Conditions: for Number of animals score 3 or 4: regardless of available space; for Number of animals with score 1 (without abnormalities) / Number of animals with score 2 (dry bite marks, not bleeding) / Number of animals with score 3 (bloody bite marks, moderate inflammation) / Number of animals with score 4 ((partial) loss, high-grade inflammation, large bleeding wounds) / Number of animals, total score 3 + 4: 96 animals
Description: A total of 1440 pigs (fattening animals of the Piétrain×Danbred breed) were used.
From the 91st day of life, the experiment started with different dosage of different amounts of guanidinoacetic acid in the feed.
After 60 days of life, 1152 animals were selected for the continuation of the experiment: Here, conspicuously weak animals and animals with easily recognizable injuries to the tail or other body parts were not used.
In the subsequent fattening period, the pigs were kept in 72 pens of 16 animals each on concrete slats without bedding. A drawing of the experimental setup is shown with FIGS. 1 to 3. The slat width was 18 mm with a tread width of 80 mm. Feed was provided ad libitum by means of type RM 05 mash feeders from IBO Stalltechnik GmbH. The feed was supplied via floury feed.
For each experimental parameter, 6 pens of mixed-sex were housed. For an even distribution, the animals were first divided into 4 main groups 1, 2, 3 and 4 of 288 animals each. Then, from each main group, animals were divided into 3 subgroups A, B and C (SG A, SG B, SG C) of 96 animals each, and from each subgroup, animals were separated into 6 pens. Thus, there were 12 experimental parameters with 6 replications each and 16 animals per replication, corresponding to 1152 animals.
The 72 pens were divided into 6 sections in a stable. All 4 main groups were represented in each section, with a pen size assigned to each main group (see Table 1). The pen sizes of main groups 3 and 4 were realized by removing railings from the standard pen of 12 m^2. To realize the pen size of main group 2, a part of a 24 m^2 pen was reduced by a railing.
Feeding from 91 days of life was performed in 2 phases, which were identical across all 4 main groups.
For subgroups B and C, guanidinoacetic acid was added to the feed in amounts of 0.04 wt. % and 0.12 wt. %, respectively, relative to the solid feed.
A maximum of 2 failures occurred per experimental regime during the fattening phase. Here, the score was evaluated at the time of the failure.
Essential for an evaluation of the stand is the ratio of uninjured or only slightly injured animals to moderately and severely injured animals. Since dry, non-bloody bite marks result from a playful non-aggressive act, animals with score 2 were added to the non-injured animals. Harmful to animal welfare is considered to occur at score 3 and above, i.e., bloody bite marks, resulting from aggressive acts that are no longer playful. Therefore, for an evaluation, the numbers for scores 3 and 4 were added and the percentage of these animals relative to the total number of the respective experimental group was evaluated.

[1] = experiment B1: 0.04 wt. % GAA in feed, 0.75 m^2/animal
[2] = experiment B2: 0.04 wt. % GAA in feed, 0.9 m^2/animal
[3] = experiment B3: 0.04 wt. % GAA in feed, 1.5 m^2/animal
[4] = experiment B4: 0.04 wt. % GAA in feed, 2.25 m^2/animal
[5] = experiment C1: 0.12 wt. % GAA in feed, 0.75 m^2/animal
[6] = experiment C2: 0.12 wt. % GAA in feed, 0.9 m^2/animal
[7] = experiment C3: 0.12 wt. % GAA in feed, 1.5 m^2/animal
[8] = experiment C4: 0.12 wt. % GAA in feed, 2.25 m^2/animal
[9] = guanidinoacetic acid given orally to pigs

## N=C(N)NCC(=O)O [guanidinoacetic acid, Guanidinoacetic acid]
0.04 wt. % GAA in feed, experiments B1 + B2 + B3 + B4 pooled, 384 animals
  Number of animals score 3 or 4: 36
0.04 wt. % GAA in feed, experiments B1 + B2 + B3 + B4 pooled, 384 animals, without supplementation 12.2%
  Injured animals (score 3 or 4): 9.4%
0.12 wt. % GAA in feed, 0.9 m^2/animal
  Reduction of injured animals versus no supplementation: almost halved the number of injured animals; also recorded: reduction of injured animals to almost half
0.12 wt. % GAA in feed, 1.5 m^2/animal
  Reduction of injured animals versus no supplementation: more than halved; also recorded: reduction of injured animals to more than half
0.12 wt. % GAA in feed, experiments C1 + C2 + C3 + C4 pooled, 384 animals
  Number of animals score 3 or 4: 32
0.12 wt. % GAA in feed, experiments C1 + C2 + C3 + C4 pooled, 384 animals, without supplementation 12.2%
  Injured animals (score 3 or 4): 8.3%
[1]
  Number of animals with score 1 (without abnormalities): 41
  Number of animals with score 2 (dry bite marks, not bleeding): 41
  Number of animals with score 3 (bloody bite marks, moderate inflammation): 10
  Number of animals with score 4 ((partial) loss, high-grade inflammation, large bleeding wounds): 4
  Number of animals, total score 3 + 4: 14
Experiment B1: 0.04 wt. % GAA in feed, 0.75 m^2/animal, without supplementation 15.6%
  Injured animals (score 3 or 4): 14.6%
[2]
  Number of animals with score 1 (without abnormalities): 50
  Number of animals with score 2 (dry bite marks, not bleeding): 36
  Number of animals with score 3 (bloody bite marks, moderate inflammation): 8
  Number of animals with score 4 ((partial) loss, high-grade inflammation, large bleeding wounds): 2
  Number of animals, total score 3 + 4: 10
Experiment B2: 0.04 wt. % GAA in feed, 0.9 m^2/animal, without supplementation 14.6%
  Injured animals (score 3 or 4): 10.4%
[3]
  Number of animals with score 1 (without abnormalities): 54
  Number of animals with score 2 (dry bite marks, not bleeding): 36
  Number of animals with score 3 (bloody bite marks, moderate inflammation): 5
  Number of animals with score 4 ((partial) loss, high-grade inflammation, large bleeding wounds): 1
  Number of animals, total score 3 + 4: 6
Experiment B3: 0.04 wt. % GAA in feed, 1.5 m^2/animal, without supplementation 11.5%
  Injured animals (score 3 or 4): 6.3%
[4]
  Number of animals with score 1 (without abnormalities): 55
  Number of animals with score 2 (dry bite marks, not bleeding): 35
  Number of animals with score 3 (bloody bite marks, moderate inflammation): 6
  Number of animals with score 4 ((partial) loss, high-grade inflammation, large bleeding wounds): 0
  Number of animals, total score 3 + 4: 6
Experiment B4: 0.04 wt. % GAA in feed, 2.25 m^2/animal, without supplementation 7.3%
  Injured animals (score 3 or 4): 6.3%
[5]
  Number of animals with score 1 (without abnormalities): 40
  Number of animals with score 2 (dry bite marks, not bleeding): 43
  Number of animals with score 3 (bloody bite marks, moderate inflammation): 10
  Number of animals with score 4 ((partial) loss, high-grade inflammation, large bleeding wounds): 3
  Number of animals, total score 3 + 4: 13
Experiment C1: 0.12 wt. % GAA in feed, 0.75 m^2/animal, without supplementation 15.6%
  Injured animals (score 3 or 4): 13.5%
[6]
  Number of animals with score 1 (without abnormalities): 52
  Number of animals with score 2 (dry bite marks, not bleeding): 36
  Number of animals with score 3 (bloody bite marks, moderate inflammation): 6
  Number of animals with score 4 ((partial) loss, high-grade inflammation, large bleeding wounds): 2
  Number of animals, total score 3 + 4: 8
Experiment C2: 0.12 wt. % GAA in feed, 0.9 m^2/animal, without supplementation 14.6%
  Injured animals (score 3 or 4): 8.3%
[7]
  Number of animals with score 1 (without abnormalities): 56
  Number of animals with score 2 (dry bite marks, not bleeding): 35
  Number of animals with score 3 (bloody bite marks, moderate inflammation): 4
  Number of animals with score 4 ((partial) loss, high-grade inflammation, large bleeding wounds): 1
  Number of animals, total score 3 + 4: 5
Experiment C3: 0.12 wt. % GAA in feed, 1.5 m^2/animal, without supplementation 11.5%
  Injured animals (score 3 or 4): 5.2%
[8]
  Number of animals with score 1 (without abnormalities): 55
  Number of animals with score 2 (dry bite marks, not bleeding): 35
  Number of animals with score 3 (bloody bite marks, moderate inflammation): 5
  Number of animals with score 4 ((partial) loss, high-grade inflammation, large bleeding wounds): 1
  Number of animals, total score 3 + 4: 6
Experiment C4: 0.12 wt. % GAA in feed, 2.25 m^2/animal, without supplementation 7.3%
  Injured animals (score 3 or 4): 6.3%
[9]
  Behavioral abnormalities in the form of tail biting (caudophagia) compared to the untreated control group: less behavioral abnormalities in the form of tail biting
  Biting attacks on conspecifics compared to an untreated control group: fewer biting attacks on conspecifics
